# Where two headings read alike, the source gives them in different places.
# Assays:
# [1] = tested on: Gastric Acid Output; test: Gastric Antisecretory Activity in the Two Hour Pylorus Ligated (Shay) Rat; assay type: in vivo, rat (Male Long Evans); settings: 2 h
# Text: Med. Res., 3, 86 (1975). […] One of the standard animal models for determining gastric antisecretory activity of histamine H2 -antagonists is the pylorus ligated rat.
# Determination of Gastric Antisecretory Activity in the Two Hour Pylorus Ligated (Shay) Rat
# The pyloric ligation procedure in the rat was designed by Shay et al., Gastroenterology, 5, 53 (1945) for the study of perforating gastric ulcers; however, as the method became known, it was also employed as a means of studying rat gastric secretion, Shay et al., Gastroenterology, 26, 906 (1954), Brodie, D, A. Am. J. Dig. Dis., 11, 231 (1966). A modification of this procedure is presently used to evaluate compounds for gastric antisecretory activity.
# Male Long Evans rats, 280-300 gm., are used. The animals are placed in individual cages and fasted for 24 hours with free access to water. Under ether anesthesia, the stomach is reached through a midline incision, and a cotton-thread ligature is placed around the pylorus. After wound closure, ether administration is stopped and the test compound or control vehicle is administered either intraperitoneally or subcutaneously in a volume of 1 ml./kg. All compounds are solubilized with one equivalent of HCl and brought to the proper volume with water. The animals are returned to their cages from which the water bottles have been removed and two hours later are sacrificed with ether. The stomach is removed and the two hour gastric collection is drained into a graduated test tube for volume determination. Titratable acidity is measured by titrating a one ml. sample to pH 7.0 with 0.02 NaOH, using an Autoburet and electrometric pH meter (Radiometer). Titratable acid output is calculated in microequivalents by multiplying the volume in milliliters by the acid concentration in milliequivalents per liter. The percent inhibition of acid output is calculated as follows [formula] At least five rats are used at each dosage level, and a minimum of three dosage levels are utilized for determination of a dose response curve. Initially this test was conducted utilizing intraperitoneal injection of the test compound or control vehicle. […] The route of administration of each compound is noted in Table 1.
# [2] = tested on: H2 -receptor; settings: cited from earlier work
# [3] = clinical; cited from earlier work
# [4] = tested on: peptic ulcer disease; settings: Gray et al., Lancet, 1, 8001 (1977); cited from earlier work
# [5] = tested on: gastric secretion; settings: cited from earlier work
# [6] = in vivo; cited from earlier work
# [7] = sc, s.c. administration, two hour gastric acid output, 95% confidence limits in parenthesis, read-out: ED50
SMILES,"ED50 [1, 7] [µmol/kg]",other results
"CN(C)Cc1ccc(CSCCNC2=NS(=O)(=O)N=C2N2CCCCC2)o1 [Example 102, 3-{2-[(5-Dimethylaminomethyl-2-furyl)methylthio]ethylamino}-4-piperidino-1,2,5-thiadiazole 1,1-dioxide]",~15,
NC1=NS(=O)(=O)N=C1NCCCOc1cccc(CN2CCOCC2)c1 [146 d],0.28,
Nc1n[s+]([O-])nc1NCCCOc1cccc(CN2CCCC2)c1 (stereo not shown) [145 a],0.056,
CNC1=NS(=O)(=O)N=C1NCCCOc1cccc(CN2CCCC2)c1 [144 a],0.095,
Nc1n[s+]([O-])nc1NCCCOc1cccc(CN2CCCCCCC2)c1 (stereo not shown) [145 d],0.05,
CN(C)Cc1ccc(CSCCNC2=NS(=O)(=O)N=C2NCCSCc2ccc(CN(C)C)o2)o1 [11 C],0.2,
"CCCCCCCCCCCCNC1=NS(=O)(=O)N=C1NCCSCc1ccc(CN(C)C)o1 [Example 106, 3-{2-[(5-Dimethylaminomethyl-2-furyl)methylthio]ethylamino}-4-dodecylamino-1,2,5-thiadiazole 1,1-dioxide]",~80,
CNC(=NC#N)NCCSCc1nc[nH]c1C [Cimetidine],,ED50 [1]: ~9 µmol/kg; H2 -antagonist potency/effectiveness relative to another antagonist [2]: as effective an H2 -antagonist as metiamide; toxicity (agranulocytosis) [3]: without producing agranulocytosis; therapeutic effect in peptic ulcer disease [4]: effective therapeutic agent in the treatment of peptic ulcer disease
CNC(=S)NCCSCc1nc[nH]c1C [Metiamide],,"oral activity ([5]; in man, oral): orally active in man; H2 -antagonist potency/effectiveness relative to another antagonist [2]: more potent than burimamide; toxicity (agranulocytosis) [3]: toxicity (agranulocytosis)"
CNC(=S)NCCCCc1cnc[nH]1 [Burimamide],,inhibition of gastric secretion ([5]; animals and man): inhibits gastric secretion in animals and man; oral absorption [6]: poor
CNC1=NS(=O)(=O)N=C1NCCSCc1ccc(CN(C)C)o1 [11 B],,"ED50 ([1]; ip, i.p. administration, two hour gastric acid output, 95% confidence limits in parenthesis, read-out: ED50): 0.69 µmol/kg"
CC1CCN(Cc2cccc(OCCCNc3n[s+]([O-])nc3N)c2)CC1 (stereo not shown) [145 b],~0.06,
CNC1=NS(=O)(=O)N=C1NCCCOc1cccc(CN2CCCCCC2)c1 [144 c],0.14,
CNC1=NS(=O)(=O)N=C1NCCCOc1cccc(CN2CCOCC2)c1 [144 d],0.91,
"CN(C)Cc1ccc(CSCCNC2=NS(=O)(=O)N=C2N(C)C)o1 [Example 28, 3-{2-[(5-Dimethylaminomethyl-2-furyl)methylthio]ethylamino}-4-dimethylamino-1,2,5-thiadiazole 1,1-dioxide]",1.39,
CNC1=NS(=O)(=O)N=C1NCCCOc1cccc(CN2CCC(C)CC2)c1 [144 b],0.025,
Nc1n[s+]([O-])nc1NCCCOc1cccc(CN2CCCCCC2)c1 (stereo not shown) [145 c],0.025,
NC1=NS(=O)(=O)N=C1NCCCOc1cccc(CN2CCCC2)c1 [146 a],0.023,
CNCc1ccc(CSCCNC2=NS(=O)(=O)N=C2NC)o1 [20 A],1.15,
